Results taken from EPA's ToxRefDB 2.

Legend:
[1] = system: dog; settings: Sub-acute repeat dose toxicity, beagle, Oral, Gavage/Intubation, dose end: 15 day, group: systemic
[2] = system: rat; settings: Sub-acute repeat dose toxicity, sprague dawley, Oral, Gavage/Intubation, dose end: 14 day, group: systemic
[3] = system: rat; settings: Sub-acute repeat dose toxicity, sprague dawley, Oral, Gavage/Intubation, dose end: 12 day, group: systemic
[4] = system: mouse; settings: Sub-acute repeat dose toxicity; Oral; Feed; dose end: 10 day; group: systemic; systemic / in life observation / body weight / body weight + systemic / in life observation / food consumption / food consumption
[5] = system: rat; settings: Sub-acute repeat dose toxicity, sprague dawley, Oral, Feed, dose end: 10 day, group: systemic
[6] = system: rabbit; settings: Sub-acute repeat dose toxicity; new zealand white; Oral; Gavage/Intubation; dose end: 4 day; group: systemic; systemic / in life observation / clinical signs / erythema + systemic / in life observation / clinical signs / tachypnea
[7] = system: rat; settings: Subchronic oral toxicity in rodents, sprague dawley, Gavage/Intubation, dose end: 91 day, group: systemic
[8] = system: dog; settings: Subchronic oral toxicity in nonrodent, beagle, Gavage/Intubation, dose end: 91 day, group: systemic
[9] = system: rabbit; settings: Prenatal developmental toxicity study, new zealand white, Oral, Gavage/Intubation, dose end: 28 GD
[10] = system: dog; settings: Subchronic oral toxicity in nonrodent, beagle, Feed, dose end: 103 day, group: systemic
[11] = system: rat; settings: Subchronic oral toxicity in rodents, sprague dawley, Feed, dose end: 90 day, group: systemic, systemic / clinical chemistry / cholesterol / cholesterol + systemic / in life observation / body weight / body weight + systemic / in life …
[12] = system: rat; settings: Multigenerational reproductive toxicity study, sprague dawley, Oral, Feed, dose end: 2 generation
[13] = system: rat; settings: Prenatal developmental toxicity study, sprague dawley, Oral, Gavage/Intubation, dose end: 15 GD
[14] = system: primate; settings: Sub-acute repeat dose toxicity, Oral, Gavage/Intubation, dose end: 28 day, group: systemic
[15] = system: primate; settings: Sub-acute repeat dose toxicity; Oral; Gavage/Intubation; dose end: 10 day; group: systemic; systemic / clinical chemistry / [other] / [other] + systemic / clinical chemistry / apolipoprotein a1 / apolipoprotein a1 + systemic / …
[16] = system: rat; settings: Sub-acute repeat dose toxicity; Oral; Gavage/Intubation; dose end: 10 day; group: systemic; systemic / hematology / erythrocyte (rbc) count differential / erythrocyte (rbc) + systemic / hematology / hematocrit (hct) / hematocrit (…
[17] = system: rat; settings: Sub-acute repeat dose toxicity, Oral, Gavage/Intubation, dose end: 34 day, group: systemic
[18] = system: rabbit; settings: Sub-acute repeat dose toxicity; Oral; Gavage/Intubation; dose end: 4 day; group: systemic; systemic / hematology / erythrocyte (rbc) count differential / erythrocyte (rbc) + systemic / hematology / hematocrit (hct) / hematocrit (…
[19] = systemic / in life observation / clinical signs / arrhythmia + systemic / in life observation / clinical signs / emesis
[20] = systemic / in life observation / clinical signs / arrhythmia + systemic / in life observation / clinical signs / emesis + systemic / in life…
[21] = systemic / pathology microscopic / blood vessel / arteritis + systemic / in life observation / body weight / body weight
[22] = systemic / in life observation / clinical signs / salivation
[23] = systemic / in life observation / clinical signs / salivation + systemic / in life observation / food consumption / food consumption + …
[24] = systemic / in life observation / body weight / body weight + systemic / in life observation / clinical signs / drooping eyelids (ptosis) + …
[25] = systemic / in life observation / body weight / body weight + systemic / in life observation / clinical signs / lacrimation or red-colored …
[26] = systemic / organ weight / heart / absolute + systemic / pathology microscopic / thyroid gland / hypertrophy + systemic / in life observation…
[27] = systemic / clinical chemistry / alkaline phosphatase (alp/alk) / alkaline phosphatase (alp/alk) + systemic / clinical chemistry / bilirubin…
[28] = systemic / in life observation / clinical signs / emesis
[29] = group: developmental, developmental / offspring survival late / lactation index / lactation index + developmental / offspring survival late / viability index / …
[30] = group: maternal, reproductive / offspring survival early / dead fetuses / dead fetuses
[31] = systemic / clinical chemistry / albumin / albumin + systemic / clinical chemistry / calcium / calcium + systemic / clinical chemistry / …
[32] = group: offspring, developmental / offspring survival late / viability index / viability index + systemic / in life observation / body weight / offspring (pup…
[33] = group: parental, systemic / in life observation / body weight / body weight gain + systemic / organ weight / liver / relative to body weight
[34] = group: developmental, developmental / developmental malformation / bone / enlarged fontanel + developmental / developmental malformation / bone / incomplete …
[35] = group: maternal, systemic / in life observation / body weight / body weight gain
[36] = group: maternal, systemic / in life observation / body weight / body weight gain + systemic / in life observation / body weight / body weight + systemic / in…
[37] = systemic / in life observation / clinical signs / pulse/pressure + systemic / clinical chemistry / albumin / albumin + systemic / hematology…
[38] = systemic / in life observation / clinical signs / pulse/pressure + systemic / in life observation / clinical signs / arrhythmia + systemic…
[39] = systemic / clinical chemistry / [other] / [other] + systemic / clinical chemistry / globulins / globulins + systemic / clinical chemistry / …
[40] = systemic / in life observation / body weight / body weight + systemic / clinical chemistry / [other] / [other] + systemic / clinical …

Compound: CCCOc1ccc(S(=O)(=O)N2CCN(CC)CC2)cc1-c1nc2c(CC)n(Cc3ccccn3)nc2c(=O)[nH]1
- LEL [1, 19]: 15 mg/kg/day
- NEL [1, 19]: < 15 mg/kg/day
- LOAEL [1, 20]: > 150 mg/kg/day
- NOAEL [1, 20]: ≥ 150 mg/kg/day
- NEL ([2]; systemic / pathology microscopic / blood vessel / arteritis): 45 mg/kg/day
- LEL [2, 21]: 200 mg/kg/day
- LOAEL [2, 21]: > 200 mg/kg/day
- NOAEL [2, 21]: ≥ 200 mg/kg/day
- LEL [3, 22]: 100 mg/kg/day
- NEL [3, 22]: < 100 mg/kg/day
- LOAEL [3, 23]: > 400 mg/kg/day
- NOAEL [3, 23]: ≥ 400 mg/kg/day
- LEL [4]: 2000 mg/kg/day
- LOAEL [4]: > 2000 mg/kg/day
- NOAEL [4]: ≥ 2000 mg/kg/day
- LOAEL [5, 24]: > 2000 mg/kg/day
- NOAEL [5, 24]: ≥ 2000 mg/kg/day
- LEL [5, 25]: 500 mg/kg/day
- NEL [5, 25]: < 500 mg/kg/day
- LEL [6]: 400 mg/kg/day
- LOAEL [6]: > 400 mg/kg/day
- NEL [6]: < 400 mg/kg/day
- NOAEL [6]: ≥ 400 mg/kg/day
- NEL ([7]; systemic / organ weight / heart / absolute + systemic / pathology microscopic / thyroid gland / hypertrophy): 25 mg/kg/day
- LEL [7, 26]: 100 mg/kg/day
- LOAEL [7, 26]: > 400 mg/kg/day
- NOAEL [7, 26]: ≥ 400 mg/kg/day
- LOAEL [8, 27]: > 100 mg/kg/day
- NOAEL [8, 27]: ≥ 100 mg/kg/day
- LEL [8, 28]: 10 mg/kg/day
- NEL [8, 28]: < 10 mg/kg/day

Compound: CCNS(=O)(=O)C(F)(F)C(F)(F)C(F)(F)C(F)(F)C(F)(F)C(F)(F)C(F)(F)C(F)(F)F [Sulfluramid]
- LEL [9, 29]: 0.3 mg/kg/day
- LOAEL [9, 29]: 0.3 mg/kg/day
- NEL [9, 29]: < 0.3 mg/kg/day
- NOAEL [9, 29]: < 0.3 mg/kg/day
- LEL [9, 30]: 0.3 mg/kg/day
- LOAEL [9, 30]: 0.3 mg/kg/day
- NEL [9, 30]: < 0.3 mg/kg/day
- NOAEL [9, 30]: < 0.3 mg/kg/day
- LOAEL [10, 31]: > 23.2 mg/kg/day
- NOAEL [10, 31]: ≥ 23.2 mg/kg/day
- LEL ([10]; systemic / organ weight / liver / relative to body weight + systemic / clinical chemistry / calcium / calcium): 2.52 mg/kg/day
- LEL [11]: 2.5 mg/kg/day
- LOAEL [11]: 2.5 mg/kg/day
- NEL [11]: 0.5 mg/kg/day
- NOAEL [11]: 0.5 mg/kg/day
- LEL [12, 32]: 1.34 mg/kg/day
- LOAEL [12, 32]: 1.34 mg/kg/day
- NEL [12, 32]: 0.45 mg/kg/day
- NOAEL [12, 32]: 0.45 mg/kg/day
- LEL [12, 33]: 1.34 mg/kg/day
- LOAEL [12, 33]: 1.34 mg/kg/day
- NEL [12, 33]: 0.45 mg/kg/day
- NOAEL [12, 33]: 0.45 mg/kg/day
- LEL [13, 34]: 13.3 mg/kg/day
- LOAEL [13, 34]: 13.3 mg/kg/day
- NEL [13, 34]: 3.3 mg/kg/day
- NOAEL [13, 34]: 3.3 mg/kg/day
- LEL [13, 35]: 3.3 mg/kg/day
- LOAEL [13, 35]: 3.3 mg/kg/day
- NEL [13, 36]: 0.8 mg/kg/day
- NOAEL [13, 36]: 0.8 mg/kg/day

Compound: CC(C)c1nnc2ccc(-c3ocnc3-c3cc(F)ccc3F)cn12
- LEL [14, 37]: 30 mg/kg/day
- NEL [14, 37]: < 30 mg/kg/day
- LOAEL [14, 38]: > 500 mg/kg/day
- NOAEL [14, 38]: ≥ 500 mg/kg/day
- LEL [15]: 1000 mg/kg/day
- LOAEL [15]: > 1000 mg/kg/day
- NEL [15]: 300 mg/kg/day
- NOAEL [15]: ≥ 1000 mg/kg/day
- LOAEL [16]: > 2000 mg/kg/day
- NEL [16]: < 250 mg/kg/day
- NOAEL [16]: ≥ 2000 mg/kg/day
- LEL [17, 39]: 100 mg/kg/day
- NEL [17, 39]: < 100 mg/kg/day
- LOAEL [17, 40]: > 2000 mg/kg/day
- NOAEL [17, 40]: ≥ 2000 mg/kg/day
- LEL [18]: 40 mg/kg/day
- LOAEL [18]: > 80 mg/kg/day
- NEL [18]: 20 mg/kg/day
- NOAEL [18]: ≥ 80 mg/kg/day
